According to PubChem BioAssay (NCI):
Where “and” joins values, the source holds several entries; their conditions need not be identical. Identical values can stand only once.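 Briefly, cells in 96-well plates were exposed to five compound concentrations for 48 h, and endpoints were estimated by linear interpolation. GI50 = concentration required for 50% inhibition of growth. TGI denotes the concentration required for complete inhibition of growth.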

What was measured:
Experiment in all cases: NCI tumour cell line growth inhibition, 48 h
TK-10 renal = system: TK-10 renal
HCC-2998 colon = system: HCC-2998 colon
SK-MEL-28 melanoma = system: SK-MEL-28 melanoma
U251 CNS = system: U251 CNS
HT29 colon = system: HT29 colon
BT-549 breast = system: BT-549 breast
T-47D breast = system: T-47D breast
HL-60(TB) leukemia = system: HL-60(TB) leukemia
SK-OV-3 ovarian = system: SK-OV-3 ovarian
M14 melanoma = system: M14 melanoma

SMILES | GI50 (TK-10 renal) | TGI (TK-10 renal) | GI50 (HCC-2998 colon) | TGI (HCC-2998 colon) | GI50 (SK-MEL-28 melanoma) | TGI (SK-MEL-28 melanoma) | GI50 (U251 CNS) | TGI (U251 CNS) | GI50 (HT29 colon) | TGI (HT29 colon) | GI50 (BT-549 breast) | TGI (BT-549 breast) | GI50 (T-47D breast) | TGI (T-47D breast) | GI50 (HL-60(TB) leukemia) | TGI (HL-60(TB) leukemia) | GI50 (SK-OV-3 ovarian) | TGI (SK-OV-3 ovarian) | GI50 (M14 melanoma) | TGI (M14 melanoma)
COc1cccc(-c2nc(-c3ccc(NS(=O)(=O)c4ccccc4)cc3)[nH]c2-c2ccnc(Br)c2)c1 | 3.72 µM | > 100 µM | 2.12 µM | 4.71 µM | 2.91 µM | 31 µM | 2.73 µM | > 100 µM | 3.02 µM | > 100 µM | 2.72 µM | 9.21 µM | 2.74 µM | > 100 µM | 2.86 µM | > 100 µM | 3.04 µM | > 100 µM | 2.03 µM | 6.09 µM
O=c1oc2ccccc2cc1-c1ccc([N+](=O)[O-])cc1 | – | > 100 µM | – | > 100 µM | – | > 100 µM | – | > 51.9 µM | – | > 100 µM | – | > 100 µM | – | > 100 µM | – | > 100 µM | – | > 100 µM | – | > 100 µM
Cc1c(C(=O)CCl)c(=O)n(-c2ccccc2)n1C | 3.81 µM | 15.2 µM | 12.9 µM | 26.6 µM | 3.27 µM | 11.6 µM | 11.4 µM | 26.2 µM | 3.25 µM | 12.9 µM | 2.46 µM | 12.8 µM | 2.43 µM | 17.6 µM | 3.8 µM | 13.5 µM | 16.4 µM | 74.5 µM | 3.13 µM | 15.4 µM
Cc1c2ncccc2c(C)c2c1[nH]c1ccc(O)cc12 | 17.4 µM | 25.9 µM and 61.6 µM | – | 17.9 µM and 12.3 µM | – | 27.3 µM | 9.94 µM and 4.34 µM | 13.9 µM and 21.6 µM | – | 32.3 µM | – | 29.3 µM | 42.8 µM | – | 3.84 µM and 4.76 µM | 10.5 µM and 15 µM | – | 11.4 µM | 8.67 µM | 17.2 µM
Clc1ccc(N2COOC3(OOC2)C2CC4CC(C2)CC3C4)cc1 | 4.98 µM | 10.5 µM | > 24.4 µM | > 100 µM | > 30.8 µM | > 100 µM | 11.9 µM | 32.9 µM | 9.93 µM | > 60.1 µM | 5.96 µM | > 58 µM | 4.97 µM | > 100 µM | 1.55 µM | 8.27 µM | > 100 µM | > 100 µM | 1.48 µM | > 100 µM
O=C1CCCSCCCC(=O)CCCSCCC1 | – | > 100 µM | – | > 100 µM | – | > 100 µM | – | > 100 µM | – | > 100 µM | – | > 100 µM | – | > 100 µM | – | > 100 µM | – | > 100 µM | – | > 100 µM
O=C(Oc1cccc(Nc2ncnc3ccccc23)c1)c1ccccc1Cl | 8.72 µM | 37.8 µM | 20.4 µM | 39.3 µM | 48.7 µM | > 100 µM | 25.4 µM | 63.5 µM | 27.4 µM | > 100 µM | 24.8 µM | 62.3 µM | 29.2 µM | > 100 µM | 79.4 µM | > 100 µM | 66.8 µM | > 100 µM | 39.7 µM | > 100 µM
CC1/C=C/C=C/CC/C=C/C=C/C=C/C=C/C(OC2OC(C)C(O)C(N)C2O)CC2OC(CC(O)C(O)CCC(O)CC(O)CC(O)CC(=O)OC(C)C(C)C1O)CC(O)C2C(=O)O (stereo not given) | 28.3 µg/mL | 32.5 µM and 53.6 µg/mL | 19.1 µg/mL | 30.8 µM and 44.6 µg/mL | 25.7 µg/mL | 37 µM and 46.3 µg/mL | 69.1 µg/mL | 32.4 µM and 150 µg/mL | 37.2 µg/mL | 32.8 µM and 84.8 µg/mL | 38.8 µg/mL | 34.6 µM and 116 µg/mL | 59.8 µg/mL | > 100 µM and 150 µg/mL | – | 45.1 µM | 47.1 µg/mL | 44.4 µM and 136 µg/mL | 27.8 µg/mL | 34.9 µM and 48.8 µg/mL
O=c1oc2ccccc2c(Cl)c1Cl | 1.88 µM | 3.7 µM | 9.86 µM | 21.8 µM | 2.68 µM | 7.76 µM | 2.85 µM | 8.86 µM | 2.25 µM | 4.85 µM | 2.63 µM | 9.33 µM | 2.38 µM | 6.87 µM | 4.09 µM | 34.3 µM | 13.3 µM | 87.3 µM | 3.47 µM | 14.1 µM
NCCCn1c2c(c3ccccc3c1=O)C(=O)c1cc3c(cc1-2)OCO3 | – | 4.17 µM | < 0.01 µM | 1.11 µM | 2.23 µM | 9.37 µM | 0.149 µM | 1.52 µM | 0.17 µM | 1.35 µM | < 0.01 µM | 1.77 µM | 0.407 µM | 3.66 µM | 0.117 µM | – | 1.93 µM | 13 µM | 0.118 µM | 1.51 µM
O=C1c2cccnc2-c2nc(-c3ccccn3)cc3c2c1nc1ccccc13 | 0.296 µM | 1.11 µM | 0.412 µM | 1.48 µM | 0.452 µM | 1.75 µM | 0.149 µM | 0.306 µM | 0.85 µM | 2.95 µM | 0.249 µM | 0.672 µM | 0.601 µM | 11.9 µM | 0.066 µM | – | 0.192 µM | 0.581 µM | 0.228 µM | 1.36 µM
